What is called IC50 is the concentration needed to halve the response being measured. A lower IC50 goes with greater potency in that assay.

The target of this test is LONP1 (NM_004793.4) (Homo sapiens (Human), UniProt P36776). In words: LONP1 FRET-based protease activity assay with fluorogenic peptide substrate. Format: biochemical. The settings on record: LONP1 15 nM, substrate 3 μM, 1 hour at 37° C.; average of a minimum of two repeats. As to the method: The inhibitory activity of the compounds of the present invention against LONP1, 20S proteasome and other proteases are determined by assays known to persons of ordinary skill in the art (see, e.g., Fishovitz, J. et al. “Active-Site-Directed Chemical Tools for Profiling Mitochondrial Lon Protease” ACS Chem. Biol. 6, 781-788 (2011)).
LONP1 (NM_004793.4), sequence (P36776 68-959): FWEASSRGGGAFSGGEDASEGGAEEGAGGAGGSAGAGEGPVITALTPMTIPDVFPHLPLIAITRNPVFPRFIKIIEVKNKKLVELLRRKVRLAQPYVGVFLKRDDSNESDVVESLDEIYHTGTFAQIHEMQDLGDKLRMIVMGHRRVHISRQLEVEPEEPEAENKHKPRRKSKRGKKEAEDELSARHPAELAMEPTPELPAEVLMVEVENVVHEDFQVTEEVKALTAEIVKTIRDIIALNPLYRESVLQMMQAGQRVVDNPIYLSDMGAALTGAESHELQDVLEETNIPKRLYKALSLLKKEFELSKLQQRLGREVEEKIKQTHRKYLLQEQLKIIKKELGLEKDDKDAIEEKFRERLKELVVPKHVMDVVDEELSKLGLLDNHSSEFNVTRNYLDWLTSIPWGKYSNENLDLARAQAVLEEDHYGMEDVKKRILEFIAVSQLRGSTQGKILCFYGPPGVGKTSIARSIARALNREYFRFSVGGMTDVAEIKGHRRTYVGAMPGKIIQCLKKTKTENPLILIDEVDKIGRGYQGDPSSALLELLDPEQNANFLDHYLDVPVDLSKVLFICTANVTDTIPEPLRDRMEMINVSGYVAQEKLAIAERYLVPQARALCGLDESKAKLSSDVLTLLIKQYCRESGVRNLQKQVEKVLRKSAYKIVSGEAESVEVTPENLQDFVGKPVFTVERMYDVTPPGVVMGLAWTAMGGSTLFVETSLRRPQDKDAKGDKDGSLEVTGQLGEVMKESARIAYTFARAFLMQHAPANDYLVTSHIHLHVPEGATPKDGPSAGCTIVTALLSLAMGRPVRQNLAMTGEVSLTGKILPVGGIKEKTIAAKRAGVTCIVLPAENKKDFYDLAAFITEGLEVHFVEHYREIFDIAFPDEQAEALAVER
In this Example, LONP1 (NM_004793.4) activity was measured by a FRET-based assay for protease activity using a fluorogenic peptide DabcylYRGIT(2Abu)SORQK(5-FAM) (Cambridge Research Biochemicals) as substrate. LONP1 activity is followed by an increase in fluorescence signal due to the degradation of the peptide. Inhibition of LONP1 protease activity by an inhibitor compound of the disclosure elicits a decrease in the fluorescent signal.
The assay is performed in a 384-well plate (Greiner, cat. #781076) using the following reagents and conditions: substrate (3 μM) was incubated for 1 hour at 37° C. in the presence of LONP1 (15 nM as monomer), 25 mM Tris pH 8.0, 10 mM MgCl2, 0.03 mg/mL […], 0.5 mM DTT, 0.0003% Tween-20, 10 mM NaCl, 0.06 mM ATP and 0.5 mM EGTA in a 15 μL final volume. The LONP1-containing mix (10 μL) was incubated with the test compound for 15 min at 37° C. before adding the peptide-containing mix (5 μL). Solutions were dispensed using a small cassette-Multidrop Combi (Thermo Scientific). Fluorescence was measured using a PheraStar plate reader (BMG Labtech) FI-FRET EX 485 nm Em 520 nm.
Each value is based on an average of a minimum of two repeats.
As for `COC[C@@H](NC(=O)c1cnccn1)C(=O)N[C@@H](COCc1ccccc1)B(O)O` [Compound 2, ((R)-2-(benzyloxy)-1-((R)-3-methoxy-2-(pyrazine-2-carboxamido)propanamido)ethyl)boronic acid], the IC50 lay in the range of 50 to 500 nM.
In turn, `CO[C@@H](C)[C@@H](NC(=O)c1cnccn1)C(=O)N[C@@H](CCOc1ccccc1)B(O)O` [Compound 30, ((R)-1-((2R,3S)-3-methoxy-2-(pyrazine-2-carboxamido)butanamido)-3-phenoxypropyl)boronic acid] showed an IC50 of 50 to 500 nM.
Then `O=C(N[C@H](CO)C(=O)N[C@@H](CCCc1ccc(O)cc1)B(O)O)c1cnccn1` [Compound 39, ((R)-1-((R)-3-hydroxy-2-(pyrazine-2-carboxamido)propanamido)-4-(4-hydroxyphenyl)butyl)boronic acid], with 500 to 5000 nM.
As for `COC[C@@H](NC(=O)[C@H]1CCCCO1)C(=O)N[C@@H](CCCc1ccccc1)B(O)O` [Compound 41, ((R)-1-((R)-3-methoxy-2-((R)-tetrahydro-2H-pyran-2-carboxamido)propanamido)-4-phenylbutyl)boronic acid], the IC50 was 50 to 500 nM.
For `COC[C@@H](NC(=O)c1cnccn1)C(=O)N[C@@H](CCCc1ccc(O)cc1)B(O)O` [Compound 40, ((R)-4-(4-hydroxyphenyl)-1-((R)-3-methoxy-2-(pyrazine-2-carboxamido)propanamido)butyl)boronic acid], the IC50 was 500 to 5000 nM.
To `COC[C@H](C(=O)N[C@@H](CCCc1ccccc1)B(O)O)N1C(=O)CCC1=O` [Compound 19, ((R)-1-((R)-2-(2,5-dioxopyrrolidin-1-yl)-3-methoxypropanamido)-4-phenylbutyl)boronic acid] belongs 500 to 5000 nM; to `COC[C@H](C(=O)N[C@@H](CCCc1ccccc1)B(O)O)N1C(=O)c2ccccc2C1=O` [Compound 16, ((R)-1-((R)-2-(1,3-dioxoisoindolin-2-yl)-3-methoxypropanamido)-4-phenylbutyl)boronic acid], 50 to 500 nM.
To `COC[C@@H](NC(=O)c1cnccn1)C(=O)N[C@@H](CCC(=O)c1ccccc1)B(O)O` [Compound 53, ((R)-1-((R)-3-methoxy-2-(pyrazine-2-carboxamido)propanamido)-4-oxo-4-phenylbutyl)boronic acid] belongs 500 to 5000 nM; to `COC[C@@H](NC(=O)c1cnccn1)C(=O)N[C@H](CCOc1ccc(Cl)c(F)c1)B(O)O` [Compound 26, ((S)-3-(4-chloro-3-fluorophenoxy)-1-((R)-3-methoxy-2-(pyrazine-2-carboxamido)propanamido)propyl)boronic acid], 500 to 5000 nM.
Then `COC[C@@H](NC(=O)c1cnccn1)C(=O)N[C@@H](CCCc1cccc(OC)c1)B(O)O` [Compound 17, ((R)-1-((R)-3-methoxy-2-(pyrazine-2-carboxamido)propanamido)-4-(3-methoxyphenyl)butyl)boronic acid], with 50 to 500 nM.
`COC[C@@H](NC(=O)c1cnccn1)C(=O)N[C@@H](CCOc1ccc(Cl)cc1C)B(O)O` [Compound 27, ((R)-3-(4-chloro-2-methylphenoxy)-1-((R)-3-methoxy-2-(pyrazine-2-carboxamido)propanamido)propyl)boronic acid]: the IC50 is 50 to 500 nM.
`COC[C@@H](NC(=O)c1cnccn1)C(=O)N[C@@H](CC1CC1)B(O)O` [Compound 18, ((R)-2-cyclopropyl-1-((R)-3-methoxy-2-(pyrazine-2-carboxamido)propanamido)ethyl)boronic acid]: the IC50 is 50 to 500 nM.
Then `COC[C@@H](NC(=O)c1cnccn1)C(=O)N[C@@H](CCCc1cccc(Cl)c1)B(O)O` [Compound 15, ((R)-4-(3-chlorophenyl)-1-((R)-3-methoxy-2-(pyrazine-2-carboxamido)propanamido)butyl)boronic acid], with 50 to 500 nM; and `COC[C@@H](NC(=O)c1cnccn1)C(=O)N[C@@H](CC(C)C)B(O)O` [Compound 38, ((R)-1-((R)-3-methoxy-2-(pyrazine-2-carboxamido)propanamido)-3-methylbutyl)boronic acid], with 50 to 500 nM; and `COC[C@@H](NC(=O)c1cnccn1)C(=O)N[C@H](CCOc1ccc(Cl)cc1F)B(O)O` [Compound 29, ((S)-3-(4-chloro-2-fluorophenoxy)-1-((R)-3-methoxy-2-(pyrazine-2-carboxamido)propanamido)propyl)boronic acid], with 500 to 5000 nM.
Then `COC[C@@H](NC(=O)[C@H]1CCC(=O)N1)C(=O)N[C@@H](CCCc1ccccc1)B(O)O` [Compound 8, ((R)-1-((R)-3-methoxy-2-((R)-5-oxopyrrolidine-2-carboxamido)propanamido)-4-phenylbutyl)boronic acid], with 50 to 500 nM.
